# From patent US20240238300A1, “TREATMENT METHODS FOR SUBJECTS WITH CANCER HAVING AN ABERRATION IN EGFR AND/OR HER2” (TAIHO PHARMACEUTICAL CO., LTD., priority 2021, published 2024)
# Where two headings read alike, the source gives them in different places.
# Legend:
# [1] = brain binding, brain homogenate, equilibrium dialysis; type: in vitro ADME, nude mouse
# Protocol: Brain binding of Compound (1) in nude mice. Brain binding of Compound (1) at 0.005, 0.01, 0.05, 0.1, and 0.5 μmol/L using nude mouse brain homogenate was evaluated by equilibrium dialysis method. The brain binding at […] was not calculated due to the limit of quantification by LC-MS/MS, but at 0.05, 0.1, and 0.5 μmol/L was 99.6±0.0%, 99.5±0.0%, and 99.5±0.0%, respectively.
# [2] = system: NCI-N87 human gastric carcinoma xenografts; experiment: antitumor effect in nude mice bearing NCI-N87 xenografts; type: in vivo; settings: 12.5 mg/kg/day orally once daily 14 days, Day 15
# Protocol: The antitumor effect of Compound (1) was evaluated in nude mice bearing HER2-overexpressing NCI-N87 human gastric carcinoma xenografts. Compound (1) dosing suspensions using 0.5% w/v hydroxypropyl methylcellulose (HPMC) as vehicle were prepared at 4 dose levels (3.1, 6.3, 12.5, and 25.0 mg/kg/day) and administered orally once daily for 14 days. In addition, the antitumor effect of poziotinib, which is a pan-ErbB inhibitor and currently under clinical development for the treatment of cancer with epidermal growth factor receptor containing HER2 exon 20 insertion mutations, was also evaluated using this model. Poziotinib was administered orally once daily for 14 days at 2 dose levels (0.5 or 1.0 mg/kg/day). The control group received 0.5% w/v HPMC once daily for 14 days.
# [3] = system: MDA-MB-175VII cells (DOC4-NRG1 fusion); experiment: growth inhibitory effect in NRG1 fusion-driven cancer cell line (GI50); type: cell-based; settings: Homo sapiens, mean of 3-4 independent experiments
# Protocol: GI50 values were also determined for currently approved EGFR/HER2 tyrosine kinase inhibitors: afatinib, osimertinib, tucatinib, lapatinib, and neratinib, and one investigational drug (poziotinib). Mean values were determined from 3-4 independent experiments.
# SK-BR-3 cells = experiment: feedback activation of HER3, downstream targets and apoptosis markers in SK-BR-3 cells; type: cell-based, human; settings: 48 hours
# Excerpt: The effect of Compound (1) on feedback activation of HER3, its downstream targets (ERK and AKT), and apoptosis markers (BIM and cleaved PARP) in SK-BR-3 cells was investigated. In addition, the same information for lapatinib and tucatinib (a reversible inhibitor of HER2) was obtained.
# human P-gp [4] = molecular target: T1, human P-gp (Homo sapiens, UniProt P08183); experiment: inhibitory effect on human P-gp, bidirectional transport of [^3H]digoxin; type: in vitro ADME
# T1 construct: expressed in transfected cells; host or cells: LLC-PK1 (porcine kidney) cells expressing human P-gp; mock/LLC-PK1 as control
# T1 sequence (P08183 whole entry): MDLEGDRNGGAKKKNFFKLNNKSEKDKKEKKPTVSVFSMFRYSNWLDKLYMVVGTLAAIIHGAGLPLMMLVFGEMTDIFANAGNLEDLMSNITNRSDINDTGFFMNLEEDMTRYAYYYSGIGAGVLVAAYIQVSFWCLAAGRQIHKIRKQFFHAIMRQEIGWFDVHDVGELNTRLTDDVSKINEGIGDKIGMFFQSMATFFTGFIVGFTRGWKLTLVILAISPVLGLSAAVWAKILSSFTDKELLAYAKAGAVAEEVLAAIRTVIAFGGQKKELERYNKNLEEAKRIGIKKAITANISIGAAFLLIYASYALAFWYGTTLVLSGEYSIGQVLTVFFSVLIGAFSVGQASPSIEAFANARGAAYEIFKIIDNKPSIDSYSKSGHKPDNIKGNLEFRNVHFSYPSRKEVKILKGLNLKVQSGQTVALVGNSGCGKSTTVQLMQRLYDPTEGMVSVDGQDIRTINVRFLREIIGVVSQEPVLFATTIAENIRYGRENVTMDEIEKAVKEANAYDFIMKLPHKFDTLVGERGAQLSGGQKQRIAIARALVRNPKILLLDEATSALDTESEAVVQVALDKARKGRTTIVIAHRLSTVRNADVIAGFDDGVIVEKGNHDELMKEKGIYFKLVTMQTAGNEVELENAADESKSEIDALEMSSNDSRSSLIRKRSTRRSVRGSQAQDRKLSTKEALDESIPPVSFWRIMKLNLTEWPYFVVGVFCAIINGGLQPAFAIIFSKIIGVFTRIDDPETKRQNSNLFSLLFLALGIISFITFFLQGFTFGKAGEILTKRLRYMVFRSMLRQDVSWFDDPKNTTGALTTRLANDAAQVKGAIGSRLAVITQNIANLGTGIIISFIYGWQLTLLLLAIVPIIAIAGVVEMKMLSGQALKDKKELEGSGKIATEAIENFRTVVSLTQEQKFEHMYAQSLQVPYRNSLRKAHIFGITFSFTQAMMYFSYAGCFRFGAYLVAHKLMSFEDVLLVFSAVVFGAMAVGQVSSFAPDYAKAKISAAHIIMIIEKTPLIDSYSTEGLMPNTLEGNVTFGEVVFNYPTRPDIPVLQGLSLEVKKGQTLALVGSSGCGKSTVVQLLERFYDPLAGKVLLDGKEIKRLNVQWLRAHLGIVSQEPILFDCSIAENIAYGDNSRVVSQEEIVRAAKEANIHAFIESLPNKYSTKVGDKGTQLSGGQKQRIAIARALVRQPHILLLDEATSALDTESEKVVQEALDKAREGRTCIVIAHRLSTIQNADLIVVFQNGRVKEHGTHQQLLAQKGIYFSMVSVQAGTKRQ
# Excerpt: Inhibitory effect of Compound (1) on human P-gp. […] The net flux ratios at the Compound (1) concentrations of 0.01, 0.1, 1, 5, 10, and 100 μmol/L were 5.6±1.0, 5.5±0.7, 6.5±0.5, 2.8±0.5, 1.3±0.2, and 1.0±0.1, respectively. The percent of controls at the Compound (1) concentrations at 0.01, 0.1, 1, 5, 10, and 100 μmol/L were 112%, 110%, 135%, 45%, 7%, and 1%, respectively.
# [5] = system: NCI-N87 xenografts relapsed from T-DM1; settings: for T/C: Step II Day 22, vs T-DM1 group; for Number of Death / TV (mean ± SE): Step II Day 22
# Protocol: Male nude mice (BALB/cAJ1-mu/mu) were implanted with NCI-N87 human gastric carcinoma (HER2 overexpressing); 1.0×10^7 cells in 100 μL of PBS were implanted subcutaneously per mouse.
# PO; or treated with an oral suspension of Compound (1) once per day at a dosage of 25 mg/kg/day, PO. The tumor volumes (TV, mm^3) and body weights of the mice were recorded.
# [6] = brain penetrability after single oral administration; type: in vivo, male nude mice; settings: male, nude, mouse
# Protocol: Brain penetrability of Compound (1) in nude mice. The brain penetrability of Compound (1) was confirmed by Kp,brain values at 0.5 and 1 hour in male nude mice following a single oral administration at 50 mg/kg (Table 6). Based on the brain penetrability study and brain and plasma protein binding studies, Kp,uu,brain was calculated to be 0.26±0.05 for 0.5 hour and 0.13±0.03 for 1 hour.
# P-gp = system: T2, P-gp; experiment: substrate susceptibility on human P-gp, bidirectional transcellular transport, P-gp/LLC-PK1 cells; type: in vitro ADME; settings: human, LLC-PK1, with zosuquidar 10 μmol/L, read-out: net flux ratio
# T2 construct: expressed in transfected cells; host or cells: LLC-PK1 (porcine kidney) cells expressing human P-gp; mock/LLC-PK1 as control
# Protocol: (§1) Substrate susceptibility of Compound (1) on human P-gp. Time-dependence of the bidirectional transcellular transport of 1 μmol/L and 10 μmol/L Compound (1) across human P-gp/Lilly Laboratories Cell-Porcine Kidney 1 (LLC-PK1) cells and mock/LLC-PK1 cells was analyzed. Net flux ratios of some samples incubated with 1 μmol/L Compound (1) for 2 or 3 hours was not calculable as concentrations of these samples were below the lower limit of quantification. […] The net flux ratios of samples incubated with 10 μmol/L Compound (1) for 2, 3, and 4 hours were 1.4±0.4 1.7±0.3, and 1.5±0.2, respectively. The net flux ratios samples incubated with 10 μmol/L Compound (1) with 10 μmol/L zosuquidar for 2, 3, and 4 hours were 1.2±0.3, 1.2±0.1, and 1.1±0.1, respectively.
# human P-gp [7] = molecular target: T1, human P-gp; experiment: as above; type: in vitro ADME
# Protocol: as §1
compound,measurement,setting,value
"C=CC(=O)N1C[C@H](n2c(C#CC3CC3)c(C(=O)N[C@H](C)c3ccccc3)c3c(N)ncnc32)C[C@@H]1C [Compound (1), 7-((3R,5S)-1-acryloyl-5-methylpyrrolidin-3-yl)-4-amino-6-(cyclopropylethynyl)-N—((R)-1-phenylethyl)-7H-pyrrolo[2,3-d]pyrimidine-5-carboxamide]",brain binding,[1]; 0.05 μmol/L,99.6±0.0%
same,brain binding,[1]; 0.1 μmol/L,99.5±0.0%
same,brain binding,[1]; 0.5 μmol/L,99.5±0.0%
same,T/C ratio of the mean tumor volumes,[2],7.3%
same,GI50,[3],0.0012 ± 0.0003 µM
same,BIM and cleaved PARP,SK-BR-3 cells; 10 to 100 nmol/L,markedly increased
same,"phosphorylation of HER2, HER3, AKT, and ERK",SK-BR-3 cells; concentrations starting as low as 10 nmol/L,sustained inhibition
same,IC50,human P-gp [4],3.48 µM
same,"activity at 3 h, 0.01 μmol/L",human P-gp [4]; human,112%
same,"activity at 3 h, 0.1 μmol/L",human P-gp [4]; human,110%
same,"activity at 3 h, 1 μmol/L",human P-gp [4]; human,135%
same,"activity at 3 h, 5 μmol/L",human P-gp [4]; human,45%
same,"activity at 3 h, 10 μmol/L",human P-gp [4]; human,7%
same,"activity at 3 h, 100 μmol/L",human P-gp [4]; human,1%
same,body weight loss (tolerance),[5]; 12.5 and 25 mg/kg/day,did not cause severe body weight loss
same,T/C,[5]; 12.5 mg/kg/day po Days 1-21,75.7%
same,T/C,[5]; 25 mg/kg/day po Days 1-21,62.4%
same,Number of Death,[5]; 12.5 mg/kg/day po Days 1-21,0
same,TV (mean ± SE),[5]; 12.5 mg/kg/day po Days 1-21,435.7 mm^3
same,Number of Death,[5]; 25 mg/kg/day po Days 1-21,0
same,TV (mean ± SE),[5]; 25 mg/kg/day po Days 1-21,353.7 mm^3
same,Kp uu at 0.5 h,"[6]; brain and plasma (unbound), 0.5 hr after single oral 50 mg/kg",0.26 ± 0.05
same,Kp uu at 1 h,"[6]; brain and plasma (unbound), 1 hr after single oral 50 mg/kg",0.13 ± 0.03
same,Kp at 0.5 h,"[6]; brain, 0.5 hr after single oral 50 mg/kg",0.415 ± 0.08
same,concentration at 0.5 h,"[6]; brain, 0.5 hr after single oral 50 mg/kg, read-out: Brain Concentration",3590 ± 600 ng/g
same,Kp at 1 h,"[6]; brain, 1 hr after single oral 50 mg/kg",0.206 ± 0.042
same,concentration at 1 h,"[6]; brain, 1 hr after single oral 50 mg/kg, read-out: Brain Concentration",1290 ± 440 ng/g
same,concentration at 0.5 h,"[6]; plasma, 0.5 hr after single oral 50 mg/kg, read-out: Plasma Concentration",8.72 ± 0.65 µg/mL
same,concentration at 1 h,"[6]; plasma, 1 hr after single oral 50 mg/kg, read-out: Plasma Concentration",6.17 ± 0.91 µg/mL
same,"efflux ratio at 4 h, 1 μmol/L","P-gp; 1 μmol/L Compound (1), 4 hours, with 10 μmol/L zosuquidar",1.5 ± 0.6
same,"efflux ratio at 2 h, 10 μmol/L","P-gp; 10 μmol/L Compound (1) with 10 μmol/L zosuquidar, 2 hours",1.2 ± 0.3
same,"efflux ratio at 4 h, 10 μmol/L","P-gp; 10 μmol/L Compound (1) with 10 μmol/L zosuquidar, 4 hours",1.1 ± 0.1
same,net flux ratio,"human P-gp [7]; 1 μmol/L Compound (1), 4 hours, without zosuquidar",4.7±0.7
same,net flux ratio,"human P-gp [7]; 10 μmol/L Compound (1) with 10 μmol/L zosuquidar, 3 hours",1.2±0.1
same,net flux ratio,"human P-gp [7]; 10 μmol/L Compound (1), 2 hours",1.4±0.4
same,net flux ratio,"human P-gp [7]; 10 μmol/L Compound (1), 3 hours",1.7±0.3
same,net flux ratio,"human P-gp [7]; 10 μmol/L Compound (1), 4 hours",1.5±0.2
same,substrate susceptibility on human P-gp,human P-gp [7]; transport saturable by increase of concentration,substrate of P-gp
